Source: patent US20110190125A1, “2-(BENZYLSULFONYL)OXAZOLE DERIVATIVES, CHIRAL 2-(BENZYLSULFINYL)OXAZOLE DERIVATIVES” (BAYER CROPSCIENCE AG, priority 2008, published 2011)

Assays:
Assay type in all cases: in vivo
Alopecurus myosuroides = experiment: Pre-emergence herbicidal effect (greenhouse pot test); conditions: pre-emergence method, application rate of 0.32 kg and less of active substance per hectare, scored visually after about 3 weeks
Description: (§1) Seeds of monocotyledonous or dicotyledonous weed plants or crop plants are placed in sandy loam in wood-fiber pots and covered with soil. The compounds according to the invention, formulated in the form of wettable powders (WP), are then applied as aqueous suspension at a water application rate of 600 I/ha (converted) with the addition of 0.2% of wetting agent to the surface of the covering soil.
(§2) After the treatment, the pots are placed in a greenhouse and kept under good growth conditions for the test plants. After about 3 weeks, the effect of the preparations is scored visually in comparison with untreated controls (herbicidal effect in percent (%): 100% activity=the plants have died, 0% activity=like control plants).

Lolium multiflorum [1] = experiment: as above; conditions: pre-emergence method, application rate of 0.32 kg and less of active substance per hectare, scored visually after about 3 weeks
Description: as §1, §2

Echinochloa crus galli [2] = experiment: as above; conditions: pre-emergence method, application rate of 0.32 kg and less of active substance per hectare, scored visually after about 3 weeks
Description: as §1, §2

Veronica persica = experiment: as above; conditions: pre-emergence method, application rate of 0.32 kg and less of active substance per hectare, scored visually after about 3 weeks
Description: as §1, §2

Lolium multiflorum [3] = experiment: Post-emergence herbicidal effect (greenhouse pot test); conditions: post-emergence method, application rate of 0.32 kg and less of active substance per hectare, rated visually after about 3 weeks
Experimental: (§3) Seeds of monocotyledonous and dicotyledonous weed and crop plants are placed in sandy loam in wood-fiber pots, covered with soil and cultivated in a greenhouse under good growth conditions. 2 to 3 weeks after sowing, the test plants are treated at the one-leaf stage. The compounds according to the invention, formulated in the form of wettable powders (WP), are then sprayed as aqueous suspension at a water application rate of 600 I/ha (converted) with the addition of 0.2% of wetting agent onto the green parts of the plants. After the test plants have been kept in the greenhouse under optimum growth conditions for about 3 weeks, the activity of the preparations is rated visually in comparison to untreated controls (herbicidal activity in percent (%): 100% activity=the plants have died, 0% activity=like control plants).

Echinochloa crus galli [4] = experiment: as above; conditions: post-emergence method, application rate of 0.32 kg and less of active substance per hectare, rated visually after about 3 weeks
Experimental: as §3

Cc1ccc(F)c(C[S+]([O-])c2ncco2)c1F (stereo not drawn) [compound No. 14, 2-[(2,6-Difluoro-3-methylbenzyl)sulfinyl]-1,3-oxazole]
very good herbicidal activity: herbicidal activity against Alopecurus myosuroides (Alopecurus myosuroides) | herbicidal activity against Lolium multiflorum (Lolium multiflorum [1]) | herbicidal activity against Echinochloa crus galli (Echinochloa crus galli [2]) | herbicidal activity against Veronica persica (Veronica persica)

Cc1ccc(C)c(C[S+]([O-])c2ncco2)c1 (stereo not drawn) [compound No. 131, 2-[(2,5-Dimethylbenzyl)sulfinyl]-1,3-oxazole]
very good herbicidal activity: herbicidal activity against Lolium multiflorum (Lolium multiflorum [3]) | herbicidal activity against Echinochloa crus galli (Echinochloa crus galli [4]) | herbicidal activity against Alopecurus myosuroides (Alopecurus myosuroides) | herbicidal activity against Lolium multiflorum (Lolium multiflorum [1]) | herbicidal activity against Echinochloa crus galli (Echinochloa crus galli [2]) | herbicidal activity against Veronica persica (Veronica persica)

O=S(=O)(Cc1c(Cl)ccc(Cl)c1Cl)c1ncco1 [compound No. 66, 2-[(2,3,6-Trichlorobenzyl)sulfonyl]-1,3-oxazole]
very good herbicidal activity: herbicidal activity against Alopecurus myosuroides (Alopecurus myosuroides) | herbicidal activity against Lolium multiflorum (Lolium multiflorum [1]) | herbicidal activity against Echinochloa crus galli (Echinochloa crus galli [2]) | herbicidal activity against Veronica persica (Veronica persica)

[O-][S+](Cc1c(F)ccc(F)c1Cl)c1ncco1 (stereo not drawn) [compound No. 203, 2-[(2-Chloro-3,6-difluorobenzyl)sulfinyl]-1,3-oxazole]
very good herbicidal activity: herbicidal activity against Lolium multiflorum (Lolium multiflorum [3]) | herbicidal activity against Echinochloa crus galli (Echinochloa crus galli [4]) | herbicidal activity against Alopecurus myosuroides (Alopecurus myosuroides) | herbicidal activity against Lolium multiflorum (Lolium multiflorum [1]) | herbicidal activity against Echinochloa crus galli (Echinochloa crus galli [2]) | herbicidal activity against Veronica persica (Veronica persica)

[O-][S+](Cc1c(Cl)cccc1Cl)c1ncco1 (racemic) [compound 44, 2-[(2,6-dichlorobenzyl)sulfinyl]-1,3-oxazole]
very good herbicidal activity: herbicidal activity against Lolium multiflorum (Lolium multiflorum [3]) | herbicidal activity against Echinochloa crus galli (Echinochloa crus galli [4]) | herbicidal activity against Alopecurus myosuroides (Alopecurus myosuroides) | herbicidal activity against Lolium multiflorum (Lolium multiflorum [1]) | herbicidal activity against Echinochloa crus galli (Echinochloa crus galli [2]) | herbicidal activity against Veronica persica (Veronica persica)

[O-][S+](Cc1c(F)cccc1F)c1ncco1 (stereo not drawn) [compound No. 11, 2-[(2,6-Difluorobenzyl)sulfinyl]-1,3-oxazole]
very good herbicidal activity: herbicidal activity against Alopecurus myosuroides (Alopecurus myosuroides) | herbicidal activity against Lolium multiflorum (Lolium multiflorum [1]) | herbicidal activity against Echinochloa crus galli (Echinochloa crus galli [2]) | herbicidal activity against Veronica persica (Veronica persica)

[O-][S@@+](Cc1c(Cl)cccc1Cl)c1ncco1 [compound 2517]
very good herbicidal activity: herbicidal activity against Lolium multiflorum (Lolium multiflorum [3]) | herbicidal activity against Echinochloa crus galli (Echinochloa crus galli [4]) | herbicidal activity against Alopecurus myosuroides (Alopecurus myosuroides) | herbicidal activity against Lolium multiflorum (Lolium multiflorum [1]) | herbicidal activity against Echinochloa crus galli (Echinochloa crus galli [2]) | herbicidal activity against Veronica persica (Veronica persica)

[O-][S+](Cc1c(Cl)ccc(Cl)c1Cl)c1ncco1 (stereo not drawn) [compound No. 65, 2-[(2,3,6-Trichlorobenzyl)sulfinyl]-1,3-oxazole]
very good herbicidal activity: herbicidal activity against Lolium multiflorum (Lolium multiflorum [3]) | herbicidal activity against Echinochloa crus galli (Echinochloa crus galli [4]) | herbicidal activity against Alopecurus myosuroides (Alopecurus myosuroides) | herbicidal activity against Lolium multiflorum (Lolium multiflorum [1]) | herbicidal activity against Echinochloa crus galli (Echinochloa crus galli [2]) | herbicidal activity against Veronica persica (Veronica persica)
